Reference: patent US20240352010A1, “SUBSTITUTED 1,2,4-THIADIAZOLYL NICOTINAMIDES, SALTS OR N-OXIDES THEREOF AND THEIR USE AS HERBICIDALLY ACTIVE SUBSTANCES” (BayerAktiengesellschaft, priority 2021, published 2024)

Experiments:
Type in all cases: in vivo
Kochia scoparia (KCHSC) = test: Herbicidal pre-emergence action, KCHSC
Source text: (§1) Seeds of mono- and dicotyledonous weed plants were sown in plastic pots (double sowings with one species of mono- and one species of dicotyledonous weed plants per pot), in sandy loam, and covered with soil. The compounds according to the invention, formulated in the form of wettable powders (WP) or as emulsifiable concentrates (EC), were applied to the surface of the covering soil as an aqueous suspension or as an emulsion, with the addition of 0.5% of an additive, at an application rate of 600 litres of water per hectare (converted). Following treatment, the pots were placed in a greenhouse and kept under optimum growth conditions for the test plants. The visual grading of the damage to the test plants is carried out after ca. 3 weeks in comparison to untreated controls (herbicidal effect in percent (%): 100% effect=plants have died, 0% effect=as control plants). Seeds of mono- and dicotyledonous weed plants were sown in plastic pots (double sowings with one species of mono- and one species of dicotyledonous weed plants per pot), in sandy loam, and covered with soil. The compounds according to the invention, formulated in the form of wettable powders (WP) or as emulsifiable concentrates (EC), were applied to the surface of the covering soil as an aqueous suspension or as an emulsion, with the addition of 0.5% of an additive, at an application rate of 600 litres of water per hectare (converted). Following treatment, the pots were placed in a greenhouse and kept under optimum growth conditions for the test plants. The visual grading of the damage to the test plants is carried out after ca. 3 weeks in comparison to untreated controls (herbicidal effect in percent (%): 100% effect=plants have died, 0% effect=as control plants).

[1] = tested on: Matricaria inodora (MATIN); test: Herbicidal post-emergence action, MATIN
Source text: (§2) Seeds of mono- and dicotyledonous weed plants were sown in plastic pots (double sowings with one species of mono- and one species of dicotyledonous weed plants per pot), in sandy loam, covered with soil and grown under controlled growth conditions. 2 to 3 weeks after sowing, the test plants were sprayed in the single-leaf stage. The compounds according to the invention, formulated in the form of wettable powders (WP) or as emulsifiable concentrates (EC), were sprayed onto the green plant parts as an aqueous suspension or as an emulsion, with the addition of 0.5% of an additive, at an application rate of 600 litres of water per hectare (converted). The test plants were placed in the greenhouse for ca. 3 weeks under optimum growth conditions, and then the effect of the preparations is assessed visually in comparison with untreated controls (herbicidal effect in percent (%): 100% effect=plants have died, 0% effect=as control plants). […]

Veronica persica (VERPE) = test: Herbicidal post-emergence action, VERPE
Source text: as §2

Stellaria media (STEME) [2] = test: Herbicidal post-emergence action, STEME
Source text: as §2

[3] = tested on: Amaranthus retroflexus (AMARE); test: Herbicidal pre-emergence action, AMARE
Source text: as §1

[4] = tested on: Amaranthus retroflexus (AMARE); test: Herbicidal post-emergence action, AMARE
Source text: as §2

Poa annua (POAAN) = test: Herbicidal post-emergence action, POAAN
Source text: as §2

Lolium rigidum (LOLRI) [5] = test: Herbicidal post-emergence action, LOLRI
Source text: as §2

[6] = tested on: Echinochloa crus-galli (ECHCG); test: Herbicidal post-emergence action, ECHCG
Source text: as §2

[7] = tested on: Abutilon theophrasti (ABUTH); test: Herbicidal pre-emergence action, ABUTH; details: 1280 g/ha, visual grading after ca. 3 weeks vs untreated controls (Table A1)
Source text: Seeds of mono- and dicotyledonous weed plants were sown in plastic pots (double sowings with one species of mono- and one species of dicotyledonous weed plants per pot), in sandy loam, and covered with soil. The compounds according to the invention, formulated in the form of wettable powders (WP) or as emulsifiable concentrates (EC), were applied to the surface of the covering soil as an aqueous suspension or as an emulsion, with the addition of 0.5% of an additive, at an application rate of 600 litres of water per hectare (converted). Following treatment, the pots were placed in a greenhouse and kept under optimum growth conditions for the test plants. The visual grading of the damage to the test plants is carried out after ca. 3 weeks in comparison to untreated controls (herbicidal effect in percent (%): 100% effect=plants have died, 0% effect=as control plants).

Stellaria media (STEME) [8] = test: Herbicidal pre-emergence action, STEME
Source text: as §1

Lolium rigidum (LOLRI) [9] = test: Herbicidal pre-emergence action, LOLRI
Source text: as §1

[10] = tested on: Matricaria inodora (MATIN); test: Herbicidal pre-emergence action, MATIN
Source text: as §1

[11] = 320 g/ha, visual grading after ca. 3 weeks vs untreated controls (Table C1)
[12] = 1280 g/ha, visual grading after ca. 3 weeks vs untreated controls (Table A4)
[13] = 320 g/ha, assessed visually after ca. 3 weeks vs untreated controls (Table D2)
[14] = 1280 g/ha, assessed visually after ca. 3 weeks vs untreated controls (Table B6)
[15] = 320 g/ha, assessed visually after ca. 3 weeks vs untreated controls (Table D5)
[16] = 1280 g/ha, assessed visually after ca. 3 weeks vs untreated controls (Table B10)
[17] = 320 g/ha, assessed visually after ca. 3 weeks vs untreated controls (Table D4)
[18] = 1280 g/ha, assessed visually after ca. 3 weeks vs untreated controls (Table B9)
[19] = 320 g/ha, visual grading after ca. 3 weeks vs untreated controls (Table C8)
[20] = 1280 g/ha, visual grading after ca. 3 weeks vs untreated controls (Table A11)
[21] = 320 g/ha, assessed visually after ca. 3 weeks vs untreated controls (Table D6)
[22] = 1280 g/ha, assessed visually after ca. 3 weeks vs untreated controls (Table B11)
[23] = 320 g/ha, assessed visually after ca. 3 weeks vs untreated controls (Table D3)
[24] = 1280 g/ha, assessed visually after ca. 3 weeks vs untreated controls (Table B8)
[25] = 1280 g/ha, assessed visually after ca. 3 weeks vs untreated controls (Table B5)
[26] = 1280 g/ha, assessed visually after ca. 3 weeks vs untreated controls (Table B3)
[27] = 320 g/ha, visual grading after ca. 3 weeks vs untreated controls (Table C6)
[28] = 1280 g/ha, visual grading after ca. 3 weeks vs untreated controls (Table A9)
[29] = 320 g/ha, visual grading after ca. 3 weeks vs untreated controls (Table C2)
[30] = 1280 g/ha, visual grading after ca. 3 weeks vs untreated controls (Table A5)
[31] = 320 g/ha, visual grading after ca. 3 weeks vs untreated controls (Table C3)
[32] = 1280 g/ha, visual grading after ca. 3 weeks vs untreated controls (Table A6)

O=C(Nc1ncns1)c1c(C2CC2)ccnc1Cl [Example I-003, 2-chloro-4-cyclopropyl-N-(1,2,4-thiadiazol-5-yl)pyridine-3-carboxamide]
90%: herbicidal effect in percent, KCHSC (Kochia scoparia (KCHSC); [11]) | herbicidal effect in percent, MATIN [1, 13] | herbicidal effect in percent, VERPE (Veronica persica (VERPE); [15]) | herbicidal effect in percent, AMARE [3, 19] | herbicidal effect in percent, POAAN (Poa annua (POAAN); [23]) | herbicidal effect in percent, LOLRI (Lolium rigidum (LOLRI) [5]; [25]) | herbicidal effect in percent, ECHCG [6, 26] | herbicidal effect in percent, ABUTH [7] | herbicidal effect in percent, LOLRI (Lolium rigidum (LOLRI) [9]; [29]) | herbicidal effect in percent, LOLRI (Lolium rigidum (LOLRI) [9]; [30])
100%: herbicidal effect in percent, KCHSC (Kochia scoparia (KCHSC); [12]) | herbicidal effect in percent, MATIN [1, 14] | herbicidal effect in percent, VERPE (Veronica persica (VERPE); [16]) | herbicidal effect in percent, STEME (Stellaria media (STEME) [2]; [17]) | herbicidal effect in percent, STEME (Stellaria media (STEME) [2]; [18]) | herbicidal effect in percent, AMARE [3, 20] | herbicidal effect in percent, AMARE [4, 21] | herbicidal effect in percent, AMARE [4, 22] | herbicidal effect in percent, POAAN (Poa annua (POAAN); [24]) | herbicidal effect in percent, STEME (Stellaria media (STEME) [8]; [27]) | herbicidal effect in percent, STEME (Stellaria media (STEME) [8]; [28]) | herbicidal effect in percent, MATIN [10, 31] | herbicidal effect in percent, MATIN [10, 32]

O=C(Nc1ncns1)c1c(C2CC2)ccnc1F [Example I-005]
90%: herbicidal effect in percent, ECHCG [6, 26] | herbicidal effect in percent, ABUTH [7]
100%: herbicidal effect in percent, KCHSC (Kochia scoparia (KCHSC); [11]) | herbicidal effect in percent, KCHSC (Kochia scoparia (KCHSC); [12]) | herbicidal effect in percent, MATIN [1, 13] | herbicidal effect in percent, MATIN [1, 14] | herbicidal effect in percent, VERPE (Veronica persica (VERPE); [15]) | herbicidal effect in percent, VERPE (Veronica persica (VERPE); [16]) | herbicidal effect in percent, STEME (Stellaria media (STEME) [2]; [17]) | herbicidal effect in percent, STEME (Stellaria media (STEME) [2]; [18]) | herbicidal effect in percent, AMARE [3, 19] | herbicidal effect in percent, AMARE [3, 20] | herbicidal effect in percent, AMARE [4, 21] | herbicidal effect in percent, AMARE [4, 22] | herbicidal effect in percent, POAAN (Poa annua (POAAN); [23]) | herbicidal effect in percent, POAAN (Poa annua (POAAN); [24]) | herbicidal effect in percent, LOLRI (Lolium rigidum (LOLRI) [5]; 320 g/ha, assessed visually after ca. 3 weeks vs untreated controls (Table D9)) | herbicidal effect in percent, LOLRI (Lolium rigidum (LOLRI) [5]; [25]) | herbicidal effect in percent, STEME (Stellaria media (STEME) [8]; [27]) | herbicidal effect in percent, STEME (Stellaria media (STEME) [8]; [28]) | herbicidal effect in percent, LOLRI (Lolium rigidum (LOLRI) [9]; [29]) | herbicidal effect in percent, LOLRI (Lolium rigidum (LOLRI) [9]; [30]) | herbicidal effect in percent, MATIN [10, 31] | herbicidal effect in percent, MATIN [10, 32]

O=C(Nc1nc(Cl)ns1)c1c(C2CC2)ccnc1Cl [Example I-013]
100%: herbicidal effect in percent, STEME (Stellaria media (STEME) [8]; [28]) | herbicidal effect in percent, MATIN [10, 32]
90%: herbicidal effect in percent, KCHSC (Kochia scoparia (KCHSC); [12]) | herbicidal effect in percent, MATIN [1, 13] | herbicidal effect in percent, MATIN [1, 14] | herbicidal effect in percent, VERPE (Veronica persica (VERPE); [15]) | herbicidal effect in percent, VERPE (Veronica persica (VERPE); [16]) | herbicidal effect in percent, STEME (Stellaria media (STEME) [2]; [17]) | herbicidal effect in percent, STEME (Stellaria media (STEME) [2]; [18]) | herbicidal effect in percent, AMARE [3, 20] | herbicidal effect in percent, AMARE [4, 21] | herbicidal effect in percent, AMARE [4, 22] | herbicidal effect in percent, POAAN (Poa annua (POAAN); [23]) | herbicidal effect in percent, POAAN (Poa annua (POAAN); [24]) | herbicidal effect in percent, LOLRI (Lolium rigidum (LOLRI) [5]; [25]) | herbicidal effect in percent, ECHCG ([6]; 320 g/ha, assessed visually after ca. 3 weeks vs untreated controls (Table D7)) | herbicidal effect in percent, ECHCG [6, 26] | herbicidal effect in percent, ABUTH [7] | herbicidal effect in percent, STEME (Stellaria media (STEME) [8]; [27]) | herbicidal effect in percent, LOLRI (Lolium rigidum (LOLRI) [9]; [30]) | herbicidal effect in percent, MATIN [10, 31]
